Counter-ions that a name gives are not always drawn.

The target of the test is T1, SPNS2 (Mus musculus, UniProt Q91VM4).
T1 construct: expressed in transfected cells; host or cells: HeLa or U937 cells
T1 sequence (Q91VM4 1-549): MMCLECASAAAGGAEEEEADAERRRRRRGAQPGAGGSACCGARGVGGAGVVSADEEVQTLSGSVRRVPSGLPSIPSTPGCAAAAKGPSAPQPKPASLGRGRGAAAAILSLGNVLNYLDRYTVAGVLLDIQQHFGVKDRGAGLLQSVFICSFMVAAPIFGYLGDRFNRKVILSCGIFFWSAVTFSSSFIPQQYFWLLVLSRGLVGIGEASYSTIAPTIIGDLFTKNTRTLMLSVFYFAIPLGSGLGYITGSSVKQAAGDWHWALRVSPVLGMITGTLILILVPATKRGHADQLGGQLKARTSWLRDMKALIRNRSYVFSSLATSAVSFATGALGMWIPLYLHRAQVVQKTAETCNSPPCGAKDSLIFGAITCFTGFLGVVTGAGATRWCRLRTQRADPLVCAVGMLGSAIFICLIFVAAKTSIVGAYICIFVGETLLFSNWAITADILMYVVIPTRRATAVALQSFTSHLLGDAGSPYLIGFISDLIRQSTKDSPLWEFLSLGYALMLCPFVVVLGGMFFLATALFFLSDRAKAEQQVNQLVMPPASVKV
Put plainly: S1P transporter assay: S1P release from whole cells expressing SPNS2. The conditions noted are these: HeLa or U937 cells expressing mouse SPNS2; 18 hours; S1P in media measured by LC-MS; read-out: IC50 (in vitro inhibition against SPNS2). The test is classed as cell-based. How it is done:
Transporter assays are vectorial and therefore require measurement of the transported analyte in different compartments. The S1P transporter SPNS2 only exports S1P, which obviates measuring uptake of S1P into transporter-expressing cells. Thus, transporter activity was determined by quantifying S1P release from whole cells expressing SPNS2. SPNS2 inhibitor potency was assessed using whole cell assays. HeLa or U937 cells expressing mouse SPNS2 were used to determine inhibitor potency (IC50). Cells were plated onto 12 well plates and assayed when the cell monolayers became confluent. Cell growth media (RPMI-1640 containing 10% fetal bovine serum) was replaced with 2 mL of serum-free media (RPMI-1640) containing fatty acid free bovine serum albumin (BSA) (0.2% w/v) and supplemented with 4-deoxypyridoxine (DOP) (1 mM), NaF (2 mM), Na3VO4 (0.2 mM) to inhibit S1P degradation. Test articles (1×10-9-1×10^-4 M) were assayed in duplicate or triplicate. After 18 hours, media was collected, an internal recovery standard (0.005 mL of 5×10^-7 M deuterated (d7) S1P in methanol) was added, the BSA was precipitated with trichloroacetic acid and the bound S1P extracted with methanol. S1P and S1P-d7 were measured by liquid chromatography mass spectrometry. Inhibitor potency at the human SPNS2 ortholog was determined by an analogous assay using U-937 cells, which endogenously express human SPNS2.
`CCCCCCCCCCc1ccc(-c2noc(CNC(=O)[C@@H](N)CCCC(=O)OC)n2)cc1` [Compound 9aa, methyl (S)-5-amino-6-(((3-(4-decylphenyl)-1,2,4-oxadiazol-5-yl)methyl)amino)-6-oxohexanoate hydrochloride]: the IC50 is ≤ 2000 nM.

As to `CCCCCCCCCCc1ccc(-c2noc(CNC(=O)CN(C)C)n2)cc1` [Compound 9ab, N-((3-(4-decylphenyl)-1,2,4-oxadiazol-5-yl)methyl)-2-(dimethylamino)acetamide hydrochloride], the half-maximal inhibitory concentration (IC50) was > 2000 nM.

In the case of `CCCCCCCCCCc1ccc(-c2noc(CNC(=O)[C@@H](N)Cc3ccccc3)n2)cc1` [Compound 9ac, (S)-2-amino-N-((3-(4-decylphenyl)-1,2,4-oxadiazol-5-yl)methyl)-3-phenylpropanamide hydrochloride], the 50% inhibitory concentration (IC50) was > 2000 nM.

On to `CCCCCCCCCCc1ccc(-c2noc(CNC(=O)[C@@H](N)CC(C)C)n2)cc1` [Compound 9ad, (S)-2-amino-N-((3-(4-decylphenyl)-1,2,4-oxadiazol-5-yl)methyl)-4-methylpentanamide hydrochloride], for which the concentration for half-maximal inhibition (IC50) is > 2000 nM.

Turning to `CCCCCCCCCCc1ccc(-c2noc(CNC(=O)[C@@H]3C[C@@H](F)CN3)n2)cc1` [Compound 9ae, (2S,4R)—N-((3-(4-decylphenyl)-1,2,4-oxadiazol-5-yl)methyl)-4-fluoropyrrolidine-2-carboxamide hydrochloride], the IC50 was > 2000 nM.

As to `CCCCCCCCCCc1ccc(-c2noc(CNC(=O)C3(N)CC3)n2)cc1` [Compound 9af, 1-amino-N-((3-(4-decylphenyl)-1,2,4-oxadiazol-5-yl)methyl)cyclopropane-1-carboxamide hydrochloride], the 50% inhibitory concentration (IC50) was > 2000 nM.

Turning to `CCCCCCCCCCc1ccc(-c2noc(CNC(=O)[C@@H]3CCCNC3)n2)cc1` [Compound 9ag, (R)—N-((3-(4-decylphenyl)-1,2,4-oxadiazol-5-yl)methyl)piperidine-3-carboxamide hydrochloride], the half-inhibitory concentration (IC50) is ≤ 2000 nM.

For the compound `CCCCCCCCCCc1ccc(-c2noc(CNC(=O)[C@@H]3CC[C@@H](N)C3)n2)cc1` [Compound 9ah, (1R,3R)-3-amino-N-((3-(4-decylphenyl)-1,2,4-oxadiazol-5-yl)methyl)cyclopentane-1-carboxamide hydrochloride], the IC50 is ≤ 2000 nM.

Regarding `CCCCCCCCCCc1ccc(-c2noc([C@@H]3CCN(C(=O)[C@@H](N)C(C)C)C3)n2)cc1` [Compound 9ai, (S)-2-amino-1-((R)-3-(3-(4-decylphenyl)-1,2,4-oxadiazol-5-yl)pyrrolidin-1-yl)-3-methylbutan-1-one 2,2,2-trifluoroacetate], the IC50 was ≤ 2000 nM.

For the compound `CCCCCCCCCCc1ccc(-c2noc([C@@H]3CCN(C(=O)[C@@H](N)CO)C3)n2)cc1` [Compound 9aj], the half-inhibitory concentration (IC50) is > 2000 nM.

`CCCCCCCCCCc1ccc(-c2noc([C@@H]3CCN(C(=O)[C@H](C)N)C3)n2)cc1` [Compound 9ak, (S)-2-amino-1-((R)-3-(3-(4-decylphenyl)-1,2,4-oxadiazol-5-yl)pyrrolidin-1-yl)propan-1-one 2,2,2-trifluoroacetate]: the half-maximal inhibitory concentration (IC50) was ≤ 2000 nM.

Take `CCCCCCCCCCc1ccc(-c2noc([C@@H]3CCN(C(=O)CN)C3)n2)cc1` [Compound 9al, (R)-2-amino-1-(3-(3-(4-decylphenyl)-1,2,4-oxadiazol-5-yl)pyrrolidin-1-yl)ethan-1-one 2,2,2-trifluoroacetate]: the half-inhibitory concentration (IC50) was > 2000 nM.

As to `CCCCCCCCCCc1ccc(-c2noc(CNC(=O)CN)n2)cc1` [Compound 9b, 2-amino-N-((3-(4-decylphenyl)-1,2,4-oxadiazol-5-yl)methyl)acetamide hydrochloride], the IC50 was > 2000 nM.

Regarding `CCCCCCCCCCc1ccc(-c2noc(CNC(=O)CN3CCNCC3)n2)cc1` [Compound 9c, N-((3-(4-decylphenyl)-1,2,4-oxadiazol-5-yl)methyl)-2-(piperazin-1-yl)acetamide hydrochloride], the half-maximal inhibitory concentration (IC50) is > 2000 nM.

Regarding `CCCCCCCCCCc1ccc(-c2noc(CNC(=O)CCCN)n2)cc1` [Compound 9d, 4-amino-N-((3-(4-decylphenyl)-1,2,4-oxadiazol-5-yl)methyl)butanamide hydrochloride], the IC50 is ≤ 2000 nM.

In the case of `CCCCCCCCCCc1ccc(-c2noc(CNC(=O)CCN)n2)cc1` [Compound 9e, 3-amino-N-((3-(4-decylphenyl)-1,2,4-oxadiazol-5-yl)methyl)propanamide hydrochloride], the half-inhibitory concentration (IC50) is > 2000 nM.

For `CCCCCCCCCCc1ccc(-c2noc(CNC(=O)[C@@H](N)C(C)C)n2)cc1` [Compound 9f, (S)-2-amino-N-((3-(4-decylphenyl)-1,2,4-oxadiazol-5-yl)methyl)-3-methylbutanamide hydrochloride], the half-maximal inhibitory concentration (IC50) was > 2000 nM.

Take `CCCCCCCCCCc1ccc(-c2noc(CNC(=O)CCCCN)n2)cc1` [Compound 9g, 5-amino-N-((3-(4-decylphenyl)-1,2,4-oxadiazol-5-yl)methyl)pentanamide hydrochloride]: the IC50 is ≤ 2000 nM.

For the compound `CCCCCCCCCCc1ccc(-c2noc(CCNC(=O)CN)n2)cc1` [Compound 9h, 2-amino-N-(2-(3-(4-decylphenyl)-1,2,4-oxadiazol-5-yl)ethyl)acetamide hydrochloride], the IC50 was ≤ 2000 nM.

On to `CCCCCCCCCCc1ccc(-c2noc(CNC(=O)[C@@H]3CCCCN3)n2)cc1` [Compound 9i, (S)—N-((3-(4-decylphenyl)-1,2,4-oxadiazol-5-yl)methyl)piperidine-2-carboxamide hydrochloride], for which the half-maximal inhibitory concentration (IC50) was ≤ 2000 nM.

For `CCCCCCCCCCc1ccc(-c2noc(CNC(=O)[C@@H]3CCNC3)n2)cc1` [Compound 9j, (R)—N-((3-(4-decylphenyl)-1,2,4-oxadiazol-5-yl)methyl)pyrrolidine-3-carboxamide hydrochloride], the half-maximal inhibitory concentration (IC50) is ≤ 2000 nM.

Turning to `CCCCCCCCCCc1ccc(-c2noc(CNC(=O)C[C@@H]3CCNC3)n2)cc1` [Compound 9k, (S)—N-((3-(4-decylphenyl)-1,2,4-oxadiazol-5-yl)methyl)-2-(pyrrolidin-3-yl)acetamide hydrochloride], the 50% inhibitory concentration (IC50) was ≤ 2000 nM.

On to `CCCCCCCCCCc1ccc(-c2noc(CNC(=O)CNC)n2)cc1` [Compound 9l, N-((3-(4-decylphenyl)-1,2,4-oxadiazol-5-yl)methyl)-2-(methylamino)acetamide hydrochloride], for which the IC50 is ≤ 2000 nM.

Take `CCCCCCCCCCc1ccc(-c2noc(CNC(=O)[C@@H]3CCCN3)n2)cc1` [Compound 9m, (S)—N-((3-(4-decylphenyl)-1,2,4-oxadiazol-5-yl)methyl)pyrrolidine-2-carboxamide hydrochloride]: the IC50 is ≤ 2000 nM.

Take `CCCCCCCCCCc1ccc(-c2noc(CNC(=O)[C@@H](N)[C@@H](C)CC)n2)cc1` [Compound 9n, (2S,3S)-2-amino-N-((3-(4-decylphenyl)-1,2,4-oxadiazol-5-yl)methyl)-3-methylpentanamide hydrochloride]: the half-maximal inhibitory concentration (IC50) was > 2000 nM.

As to `CCCCCCCCCCc1ccc(-c2noc(CNC(=O)C[C@@H]3CCCNC3)n2)cc1` [Compound 9o, (S)—N-((3-(4-decylphenyl)-1,2,4-oxadiazol-5-yl)methyl)-2-(piperidin-3-yl)acetamide hydrochloride], the IC50 was > 2000 nM.

In the case of `CCCCCCCCCCc1ccc(-c2noc(CNC(=O)C3CCNCC3)n2)cc1` [Compound 9p, N-((3-(4-decylphenyl)-1,2,4-oxadiazol-5-yl)methyl)piperidine-4-carboxamide hydrochloride], the concentration for half-maximal inhibition (IC50) is > 2000 nM.

For `CCCCCCCCCCc1ccc(-c2noc(CNC(=O)[C@H]3CNCCO3)n2)cc1` [Compound 9q, (R)—N-((3-(4-decylphenyl)-1,2,4-oxadiazol-5-yl)methyl)morpholine-2-carboxamide hydrochloride], the 50% inhibitory concentration (IC50) is > 2000 nM.

For `CCCCCCCCCCc1ccc(-c2noc(CNC(=O)[C@@H]3CCC[C@H](N)C3)n2)cc1` [Compound 9r, (1R,3S)-3-amino-N-((3-(4-decylphenyl)-1,2,4-oxadiazol-5-yl)methyl)cyclohexane-1-carboxamide hydrochloride], the concentration for half-maximal inhibition (IC50) is ≤ 2000 nM.

Take `CCCCCCCCCCc1ccc(-c2noc(CNC(=O)[C@@H](N)CO)n2)cc1` [Compound 9s, (S)-2-amino-N-((3-(4-decylphenyl)-1,2,4-oxadiazol-5-yl)methyl)-3-hydroxypropanamide hydrochloride]: the 50% inhibitory concentration (IC50) is > 2000 nM.

For the origin of these results see patent US20230373937A1, “INHIBITORS OF SPINSTER HOMOLOG 2 (SPNS2) FOR USE IN THERAPY” (University of Virginia Patent Foundation, priority 2020, published 2023).
